From US8969320B2, “Hyaluronic acid derivatives containing groups able to release NO” (Fidia Farmaceutici S.P.A., priority 2007, dated 2015)

Assay: Release Test: nitric oxide (NO) release profile by spectrophotometry (Griess test)
Type: physicochemical
Conditions: 4 mg product in 2.5 ml Griess reagent
Method: The nitric oxide (NO) release profile of the compounds of the invention was evaluated by spectrophotometry using the […]. The trend of NO release by the HA-Cys conjugate in S-nitroso form, prepared as described in example 13, is shown here by way of example. Briefly: 4 mg of the product is dissolved in 2.5 ml of Griess reagent in a UV-visible spectrophotometric cuvette. The solution is rapidly homogenised, placed in a double-beam spectrophotometer (Perkin Elmer Lambda 2), and the absorbance trend is measured at 540 nm over time against a blank consisting of Griess solution. The absorbance, i.e. the nitric oxide concentration, increases in the solution with an asymptotic trend, the plateau of which has not yet been reached 25 hrs after release. Assuming first-order kinetics, a decay constant amounting to 70 min^−1 is obtained.

## HA-Cys-S-nitric Oxide p50 Derivative (750 kDa) [Example 13]
Absorbance at 540 nm over time against Griess solution blank
  decay constant of NO release, assuming first-order kinetics: 70 min⁻¹
Absorbance at 540 nm, asymptotic trend
  time after release at which the plateau of NO concentration (absorbance) has not yet been reached: > 25 h
